Measurements published in patent publication US10124033B2, “Peptides and methods of use” (BAXALTA INCORPORATED, priority 2014, dated 2018).
Non-standard residues stand in square brackets, D forms with d. Residues, ends and D or L forms follow the SMILES beside them. Tle = CC(C)(C)[C@H](N)C(=O)O

Target: T1, Protein S (Homo sapiens, UniProt P07225)
T1 sequence (P07225 41-676 limits assumed): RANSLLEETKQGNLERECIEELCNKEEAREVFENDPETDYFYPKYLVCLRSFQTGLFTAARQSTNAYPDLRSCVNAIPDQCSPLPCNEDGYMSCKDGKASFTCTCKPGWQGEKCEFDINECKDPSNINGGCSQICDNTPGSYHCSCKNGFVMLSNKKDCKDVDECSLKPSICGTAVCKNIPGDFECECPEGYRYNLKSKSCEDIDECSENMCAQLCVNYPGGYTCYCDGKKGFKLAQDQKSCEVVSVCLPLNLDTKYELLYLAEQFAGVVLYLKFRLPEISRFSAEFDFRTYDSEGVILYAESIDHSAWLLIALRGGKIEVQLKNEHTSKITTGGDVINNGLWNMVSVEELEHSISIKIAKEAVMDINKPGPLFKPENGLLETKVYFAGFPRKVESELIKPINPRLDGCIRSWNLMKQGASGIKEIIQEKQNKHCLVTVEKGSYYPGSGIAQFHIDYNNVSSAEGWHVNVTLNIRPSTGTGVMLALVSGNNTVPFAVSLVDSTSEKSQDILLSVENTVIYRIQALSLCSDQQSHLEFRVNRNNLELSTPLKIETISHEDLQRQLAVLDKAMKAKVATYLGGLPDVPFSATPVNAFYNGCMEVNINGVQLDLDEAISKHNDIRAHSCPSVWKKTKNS
Assay: competition (IC50) ELISA with biotinylated tracer peptide JBS0684
Assay type: binding
Conditions: competition ELISA, tracer JBS0684; re-synthesized peptides
Experimental: The new peptide candidates were synthesized (purity >60%) and screened for affinity in a competitive binding assay (ELISA IC50) and activity in a thrombin generation assay (CAT). The competition (IC50) ELISA was performed using biotinylated tracer peptide JBS0684 to compete for Protein S-binding with candidate peptides. Peptides that compete with the tracer bind the same region of Protein S as the tracer (and each other). Ninety-six well PolySorp plates (Nunc) were coated with 3 μg/mL Protein S in coating buffer (15 mM Na2CO3, 35 mM NaHCO3, pH 9.6) over night. Plates were washed three times with wash buffer (HNaT: 175 mM NaCl, 25 mM HEPES, 5 mM CaCl2, 0.1% Tween 80, pH 7.35), and blocked with 100 μl 2% yeast extract in HNaT for at least 1 hour. Plates were then washed three times with HNaT. JBS0684 was applied at a concentration corresponding to the EC90 value determined in the binding ELISA. A competitor stock solution of peptide (10 mM) was diluted 1/33.3 in HNaT without HSA, and a serial ⅓ dilution was prepared with HNaT with 3% DMSO. The dilution was further diluted with the biotinylated tracer peptide in a ratio of 1:6 (20 μl competitor dilution and 100 μl tracer peptide). The mixture of competitor and tracer peptide was applied to the Protein S-coated microtiter plate and incubated for 1.5 hours. The plates were washed three times with HNaT. Peptide-Protein S binding was detected by applying HRP-conjugated streptavidin to the microtiter plate, incubating the mixture for one hour, washing the plate three times with HNaT, applying TMB (3,3′5,5′-Tetramethylbenzidin), and detecting the subsequent chromogenic conversion of TMB by HRP. IC50 measurements of peptides are provided herein (see, e.g., Table 3).

Compound	IC50 [nM]
CC(=O)N[C@H](C(=O)NCC(=O)N[C@@H](Cc1c[nH]cn1)C(=O)N[C@H](C(=O)N[C@@H](CO)C(=O)N[C@@H](C)C(=O)NCC(=O)N[C@@H](Cc1c[nH]c2ccccc12)C(=O)N[C@@H](Cc1ccc(O)cc1)C(=O)N[C@@H](CC(=O)O)C(=O)N[C@@H](Cc1ccc(O)cc1)C(=O)N[C@@H](CC(N)=O)C(=O)N[C@@H](CC(C)C)C(=O)N[C@@H](CC(=O)O)C(=O)N[C@@H](Cc1c[nH]cn1)C(=O)N[C@@H](Cc1ccc(O)cc1)C(=O)N[C@@H](CCCNC(=N)N)C(=O)N[C@@H](CCC(=O)O)C(=O)N[C@@H](Cc1ccccc1)C(=O)N[C@H](C(N)=O)[C@@H](C)O)C(C)C)[C@@H](C)O [JBS2582] (Ac-TGHVSAGWYDYNLDHYREFT-NH2)	2.3
CC(=O)N[C@H](C(=O)NCC(=O)N[C@@H](Cc1c[nH]cn1)C(=O)N[C@H](C(=O)N[C@@H](CO)C(=O)N[C@@H](C)C(=O)NCC(=O)N[C@@H](Cc1c[nH]c2ccccc12)C(=O)N[C@@H](Cc1ccc(O)cc1)C(=O)N[C@@H](CC(=O)O)C(=O)N[C@@H](Cc1ccc(O)cc1)C(=O)N[C@@H](CC(N)=O)C(=O)N[C@@H](Cc1ccccc1)C(=O)N[C@@H](CC(=O)O)C(=O)N[C@@H](C)C(=O)N[C@@H](Cc1ccc(O)cc1)C(=O)N[C@@H](CCCNC(=N)N)C(=O)N[C@@H](CCC(=O)O)C(=O)N[C@@H](Cc1ccccc1)C(=O)N[C@H](C(N)=O)[C@@H](C)O)C(C)C)[C@@H](C)O [JBS2528] (Ac-TGHVSAGWYDYNFDAYREFT-NH2)	5.2
CC(=O)N[C@H](C(=O)NCC(=O)N[C@@H](Cc1c[nH]cn1)C(=O)N[C@H](C(=O)N[C@@H](CO)C(=O)N[C@@H](C)C(=O)NCC(=O)N[C@@H](Cc1c[nH]c2ccccc12)C(=O)N[C@@H](Cc1ccc(O)cc1)C(=O)N[C@@H](CC(=O)O)C(=O)N[C@@H](Cc1ccc(O)cc1)C(=O)N[C@@H](CC(N)=O)C(=O)N[C@@H](Cc1ccccc1)C(=O)N[C@@H](CC(=O)O)C(=O)N[C@@H](CO)C(=O)N[C@@H](Cc1ccc(O)cc1)C(=O)N[C@@H](CCCNC(=N)N)C(=O)N[C@@H](CCC(=O)O)C(=O)N[C@@H](Cc1ccccc1)C(=O)N[C@H](C(N)=O)[C@@H](C)O)C(C)C)[C@@H](C)O [JBS2661] (Ac-TGHVSAGWYDYNFDSYREFT-NH2)	2.8
CC(=O)N[C@H](C(=O)NCC(=O)N[C@@H](CCCCN)C(=O)N[C@H](C(=O)N[C@@H](CO)C(=O)N[C@@H](C)C(=O)NCC(=O)N[C@@H](Cc1c[nH]c2ccccc12)C(=O)N[C@@H](Cc1ccc(O)cc1)C(=O)N[C@@H](CC(=O)O)C(=O)N[C@@H](Cc1ccc(O)cc1)C(=O)N[C@@H](CC(N)=O)C(=O)N[C@@H](Cc1ccccc1)C(=O)N[C@@H](CC(=O)O)C(=O)N[C@@H](Cc1c[nH]cn1)C(=O)N[C@@H](Cc1ccc(O)cc1)C(=O)N[C@@H](CCCNC(=N)N)C(=O)N[C@@H](CCC(=O)O)C(=O)N[C@@H](Cc1ccccc1)C(=O)N[C@H](C(N)=O)[C@@H](C)O)C(C)C)[C@@H](C)O [JBS2592] (Ac-TGKVSAGWYDYNFDHYREFT-NH2)	5.6
CC(=O)N[C@H](C(=O)N1CCC[C@H]1C(=O)N[C@@H](Cc1c[nH]cn1)C(=O)N[C@H](C(=O)N[C@@H](CO)C(=O)N[C@@H](C)C(=O)NCC(=O)N[C@@H](Cc1c[nH]c2ccccc12)C(=O)N[C@@H](Cc1ccc(O)cc1)C(=O)N[C@@H](CC(=O)O)C(=O)N[C@@H](Cc1ccc(O)cc1)C(=O)N[C@@H](CC(N)=O)C(=O)N[C@@H](Cc1ccccc1)C(=O)N[C@@H](CC(=O)O)C(=O)N[C@@H](Cc1c[nH]cn1)C(=O)N[C@@H](Cc1ccc(O)cc1)C(=O)N[C@@H](CCCNC(=N)N)C(=O)N[C@@H](CCC(=O)O)C(=O)N[C@@H](Cc1ccccc1)C(=O)N[C@H](C(N)=O)[C@@H](C)O)C(C)C)[C@@H](C)O [JBS2629] (Ac-TPHVSAGWYDYNFDHYREFT-NH2)	3.1
CC(=O)N[C@H](C(=O)NCC(=O)N[C@@H](Cc1c[nH]cn1)C(=O)N[C@H](C(=O)N[C@@H](CO)C(=O)N[C@@H](C)C(=O)NCC(=O)N[C@@H](Cc1c[nH]c2ccccc12)C(=O)N[C@@H](Cc1ccc(O)cc1)C(=O)N[C@@H](CC(=O)O)C(=O)N[C@@H](Cc1ccc(O)cc1)C(=O)N[C@@H](CC(N)=O)C(=O)N[C@@H](Cc1ccccc1)C(=O)N[C@@H](CC(=O)O)C(=O)N[C@@H](Cc1c[nH]cn1)C(=O)N[C@@H](Cc1ccc(O)cc1)C(=O)N[C@@H](Cc1ccccc1)C(=O)N[C@@H](CCC(=O)O)C(=O)N[C@@H](Cc1ccccc1)C(=O)N[C@H](C(N)=O)[C@@H](C)O)C(C)C)[C@@H](C)O [JBS2625] (Ac-TGHVSAGWYDYNFDHYFEFT-NH2)	1.6

Target: T1, Protein S
Assay: LANCE IC50 assay (competition TR-FRET) with tracer JBS0684
Assay type: binding
Conditions: not given
Experimental: Peptides also were characterized in a competition, homogenous europium-based TR-FRET assay (LANCE IC50 assay) using JBS0684 as a tracer (i.e., competitor for Protein S binding). The following reagents were mixed together in a Perkin-Elmer ProxiPlate MTP well (indicated concentration is the final concentration): Eu-labeled Protein S (10 nM), Ulight™-labeled Streptavidin (100 nM), tracer (JBS0684 (300 nM)), and peptide (titrated in three-fold dilution steps). The final volume was 50 μl/well. The reaction mix was incubated for 1 hour at room temperature, then the fluorescence emission at 665 nm was recorded on a multi-mode reader (SpectraMax® M5, Molecular Devices) using the following instrument settings: Ex 340 nm, Em 665 nm, delay 50 μsec, integration 100 μsec, reads 100. Binding of tracer peptides to soluble europium-labeled Protein S was detected by Streptavidin labeled with an acceptor fluorophor (ULight™). Inhibition of tracer-binding to Protein S by a non-biotinylated peptide results in a decrease of TR-FRET between the Eu-labeled Protein S and ULight™-labeled Streptavidin. IC50 values were obtained from peptide titration curves at constant tracer concentration using non-linear regression of the fluorescence emission signals at 665 nm.

Compound	IC50 [nM]
CC(=O)N[C@H](C(=O)NCC(=O)N[C@@H](CC(C)C)C(=O)N[C@H](C(=O)N[C@@H](CO)C(=O)N[C@@H](C)C(=O)NCC(=O)N[C@@H](Cc1c[nH]c2ccccc12)C(=O)N[C@@H](Cc1ccc(O)cc1)C(=O)N[C@@H](CC(=O)O)C(=O)N[C@@H](Cc1ccc(O)cc1)C(=O)N[C@@H](CC(N)=O)C(=O)N[C@@H](CC(N)=O)C(=O)N[C@@H](CC(=O)O)C(=O)N[C@H](C(=O)N[C@@H](Cc1ccc(O)cc1)C(=O)N[C@@H](CCCNC(=N)N)C(=O)N[C@@H](CCC(=O)O)C(=O)N[C@@H](Cc1ccccc1)C(=O)N[C@H](C(N)=O)[C@@H](C)O)[C@@H](C)O)C(C)C)[C@@H](C)O [JBS3194] (Ac-TGLVSAGWYDYNNDTYREFT-NH2)	1.8

Same assay, conditions: Table 4, multiple substitutions in JBS2572; read-out: LANCE IC50

Compound	IC50 [nM]
CC(=O)N[C@H](C(=O)NCC(=O)N[C@@H](CC(C)C)C(=O)N[C@H](C(=O)N[C@@H](CCC(=O)O)C(=O)N[C@@H](C)C(=O)NCC(=O)N[C@@H](Cc1c[nH]c2ccccc12)C(=O)N[C@@H](Cc1ccc(O)cc1)C(=O)N[C@@H](CC(=O)O)C(=O)N[C@@H](Cc1ccc(O)cc1)C(=O)N[C@@H](CC(N)=O)C(=O)N[C@@H](Cc1ccccc1)C(=O)N[C@@H](CC(=O)O)C(=O)N[C@H](C(=O)N[C@@H](Cc1ccc(O)cc1)C(=O)N[C@@H](CCCNC(=N)N)C(=O)N[C@@H](CCC(=O)O)C(=O)N[C@@H](Cc1ccccc1)C(=O)N[C@H](C(N)=O)[C@@H](C)O)[C@@H](C)O)C(C)C)[C@@H](C)O [JBS3192] (Ac-TGLVEAGWYDYNFDTYREFT-NH2)	2.8
CC(=O)N[C@H](C(=O)NCC(=O)N[C@@H](CC(C)C)C(=O)N[C@H](C(=O)N[C@@H](CO)C(=O)N[C@@H](C)C(=O)NCC(=O)N[C@@H](Cc1c[nH]c2ccccc12)C(=O)N[C@@H](Cc1ccc(O)cc1)C(=O)N[C@@H](CC(=O)O)C(=O)N[C@@H](Cc1ccc(O)cc1)C(=O)N[C@@H](CC(N)=O)C(=O)N[C@@H](Cc1ccccc1)C(=O)N[C@@H](CC(=O)O)C(=O)N[C@H](C(=O)N[C@@H](Cc1ccc(O)cc1)C(=O)N[C@@H](CCCNC(=N)N)C(=O)N[C@@H](CCC(=O)O)C(=O)N[C@@H](Cc1ccccc1)C(=O)N[C@H](C(N)=O)[C@@H](C)O)[C@@H](C)O)C(C)(C)C)[C@@H](C)O [JBS3202, Ac-TGL-Tle-SAGWYDYNFDTYREFT-NH2] (Ac-TGL[Tle]SAGWYDYNFDTYREFT-NH2)	1.6
